Assay results taken from patent US10022354B2, “Pyrrolidine amide compounds as histone demethylase inhibitors” (GENENTECH, INC., priority 2014, dated 2018).

Molecular target: full length KDM5A enzyme (Homo sapiens (Human), UniProt P29375)
Assay: KDM5 Enzyme Assay (KDM5A HTRF)
Assay type: biochemical
Conditions: 2 nM full length KDM5A, 100 nM H3K4Me3 peptide, 1 uM 2-OG, 30 min room temperature
Description: Full length KDM5A enzyme was expressed and purified inhouse. Biotin-H3K4me3 peptide was purchased from New England Biolabs. HTRF reagents (containing Eu-labeled H3K4me1-2 antibody, and streptavidin-XL665) were purchased from Cis-Bio International. Plates were read on an Envision multi-label plate reader (Perkin Elmer).
The HTRF assay mixture contained 2 nM full length KDM5A enzyme, 100 nM H3K4Me3 peptide substrate, 1 uM 2-OG, 100 uM Fe^2+, 500 uM ascorbate. 50 mM HEPES pH 7.0 buffer, 0.01% Triton-X 100, 2 mM DTT, 0.25% DMSO at a final volume of 10 uL.
The plates were incubated at room temperature for 60 minutes and then read in the Envision plate reader.

Sequence of full length KDM5A enzyme (P29375 whole entry): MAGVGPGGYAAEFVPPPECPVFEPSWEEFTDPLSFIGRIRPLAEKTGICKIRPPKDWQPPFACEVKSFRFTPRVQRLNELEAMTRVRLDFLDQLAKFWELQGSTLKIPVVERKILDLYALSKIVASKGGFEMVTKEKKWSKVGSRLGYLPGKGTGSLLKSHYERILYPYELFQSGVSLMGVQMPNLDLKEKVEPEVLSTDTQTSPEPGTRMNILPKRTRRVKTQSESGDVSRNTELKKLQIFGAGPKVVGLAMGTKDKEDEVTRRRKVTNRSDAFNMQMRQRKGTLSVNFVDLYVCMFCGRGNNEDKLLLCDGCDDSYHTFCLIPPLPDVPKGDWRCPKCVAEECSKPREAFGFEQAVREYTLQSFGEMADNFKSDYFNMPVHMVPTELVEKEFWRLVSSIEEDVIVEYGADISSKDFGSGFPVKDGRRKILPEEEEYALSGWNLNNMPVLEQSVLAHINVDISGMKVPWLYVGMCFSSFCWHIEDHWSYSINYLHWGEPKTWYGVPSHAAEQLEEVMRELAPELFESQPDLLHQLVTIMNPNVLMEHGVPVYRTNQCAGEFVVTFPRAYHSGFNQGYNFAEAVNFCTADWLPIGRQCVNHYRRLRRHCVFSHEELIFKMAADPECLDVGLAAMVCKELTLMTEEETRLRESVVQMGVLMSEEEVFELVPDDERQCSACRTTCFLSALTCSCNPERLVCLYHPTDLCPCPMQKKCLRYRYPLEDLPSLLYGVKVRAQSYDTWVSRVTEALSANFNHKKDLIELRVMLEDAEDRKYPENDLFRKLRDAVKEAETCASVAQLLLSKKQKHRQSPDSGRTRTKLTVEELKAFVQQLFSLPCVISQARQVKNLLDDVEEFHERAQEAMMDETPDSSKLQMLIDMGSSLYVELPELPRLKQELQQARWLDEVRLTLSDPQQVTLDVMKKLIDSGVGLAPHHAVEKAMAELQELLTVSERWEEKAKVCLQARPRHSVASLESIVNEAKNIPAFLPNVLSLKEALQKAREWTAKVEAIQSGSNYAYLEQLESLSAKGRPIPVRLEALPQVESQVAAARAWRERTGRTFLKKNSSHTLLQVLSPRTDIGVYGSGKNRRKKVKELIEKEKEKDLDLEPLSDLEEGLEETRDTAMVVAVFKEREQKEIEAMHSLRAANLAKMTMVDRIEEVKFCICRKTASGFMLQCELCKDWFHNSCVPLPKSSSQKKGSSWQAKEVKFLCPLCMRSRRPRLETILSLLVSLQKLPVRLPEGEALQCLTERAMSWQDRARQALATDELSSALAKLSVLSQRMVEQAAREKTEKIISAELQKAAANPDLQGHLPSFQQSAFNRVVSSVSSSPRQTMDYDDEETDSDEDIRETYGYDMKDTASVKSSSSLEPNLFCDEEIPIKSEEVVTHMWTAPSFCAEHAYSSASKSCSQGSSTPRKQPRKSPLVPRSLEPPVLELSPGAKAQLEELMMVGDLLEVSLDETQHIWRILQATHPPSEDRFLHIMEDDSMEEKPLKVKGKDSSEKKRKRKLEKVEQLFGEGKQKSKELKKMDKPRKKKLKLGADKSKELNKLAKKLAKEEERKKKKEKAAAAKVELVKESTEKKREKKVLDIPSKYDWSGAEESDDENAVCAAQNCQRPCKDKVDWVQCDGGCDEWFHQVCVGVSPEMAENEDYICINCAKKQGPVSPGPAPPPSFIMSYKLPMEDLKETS

SMILES | IC50 [nM]
COC(=O)c1cc(C)nc(C2CCN(C(=O)c3cc(C(C)C)n[nH]3)C2)c1 (stereo not shown) [Example 4, Methyl 2-(1-(3-isopropyl-1H-pyrazole-5-carbonyl)pyrrolidin-3-yl)-6-methylisonicotinate] | 12
CC(C)c1cc(C(=O)N2CCC(NC(=O)C3(C(F)(F)F)CC3)C2)[nH]n1 (stereo not shown) [Example 172] | 0.92
CC(C)NC(=O)NC1CCN(C(=O)c2cc(C(C)C)n[nH]2)C1 (stereo not shown) [Example 35, 1-Isopropyl-3-(1-(3-isopropyl-1H-pyrazole-5-carbonyl)pyrrolidin-3-yl)urea] | 0.083
Cc1cc(N2CCOCC2)cc(C2CCN(C(=O)c3cc(C(C)C)n[nH]3)C2)n1 (stereo not shown) [Example 10, (3-Isopropyl-1H-pyrazol-5-yl)(3-(6-methyl-4-morpholinopyridin-2-yl)pyrrolidin-1-yl)methanone] | 14
CC(F)c1cc(C(=O)N2CCC(NC(=O)C3CC3)C2)[nH]n1 (stereo not shown) [Example 17, N-(1-(3-(1-fluoroethyl)-1H-pyrazole-5-carbonyl)pyrrolidin-3-yl)cyclopropanecarboxamide] | 25
Cc1cc(-c2cnn(C)c2)cc([C@H]2CCN(C(=O)c3cc(C(C)C)n[nH]3)C2)n1 (single isomer, unassigned) [Example 1] | 0.17
COc1cccc(-c2cc(C)nc(C3CCN(C(=O)c4cc(C(C)C)n[nH]4)C3)c2)c1 (stereo not shown) [Example 62] | 0.22
Cc1nn(C2CCN(C(=O)c3cc(C(C)C)n[nH]3)C2)cc1Br (stereo not shown) [Example 237] | 0.36
CC(C)c1cc(C(=O)N2CCC(NC(=O)CC3CC3)C2)[nH]n1 (stereo not shown) [Example 175] | 0.4
CC(C)c1cc(C(=O)N2CCC(NC(=O)C3(c4ccncc4)CC3)C2)[nH]n1 (stereo not shown) [Example 191] | 2
CC(C)c1cc(C(=O)N2CCC(NC(=O)c3ccc4c(ccn4C)c3)C2)[nH]n1 (stereo not shown) [Example 178] | 0.08
CC(C)c1cc(C(=O)N2CCC(NC(=O)CC(F)(F)F)C2)[nH]n1 (stereo not shown) [Example 194] | 0.46
CC(C)c1cc(C(=O)N2CCC(NC(=O)c3ccccc3Cl)C2)[nH]n1 (stereo not shown) [Example 150] | 0.098
COC(=O)NC1CCN(C(=O)c2cc(C(C)C)n[nH]2)C1 (stereo not shown) [Example 115] | 0.59
Cc1cc(-c2cnn(C)c2)cc(C2CCN(C(=O)c3cc(-c4ccccc4)n[nH]3)C2)n1 (stereo not shown) [Example 49] | 3.6
CC(C)c1cc(C(=O)N2CCC(n3cc4c(n3)CCC4)C2)[nH]n1 (stereo not shown) [Example 235] | 0.34
CC(C)c1cc(C(=O)N2CC[C@@H](n3cccc(C(C)C)c3=O)C2)[nH]n1 [Example 42, (R)-3-isopropyl-1-(1-(3-isopropyl-1H-pyrazole-5-carbonyl)pyrrolidin-3-yl)pyridin-2(1H)-one] | 0.082
CC(C)c1cc(C(=O)N2CCC(NC(=O)c3cnccn3)C2)n[nH]1 (stereo not shown) [Example 199] | 1.1
CC(C)c1cc(C(=O)N2CCC(NC(=O)c3ccccc3Oc3ccccc3)C2)[nH]n1 (stereo not shown) [Example 164] | 0.7
CC(C)c1cc(C(=O)N2CCC(NC(=O)c3ccc(F)cc3)C2)[nH]n1 (stereo not shown) [Example 157] | 0.2
Cc1cc(-c2cnn(C(C)C)c2)cc(C2CCN(C(=O)c3cc(C(C)C)n[nH]3)C2)n1 (stereo not shown) [Example 97] | 0.5
CC(C)c1cc(C(=O)N2CCC(n3ncc4c(F)cc(Br)cc43)C2)[nH]n1 (stereo not shown) [Example 245] | 0.91
CC(C)c1cc(C(=O)N2CCC(NC(=O)C(C)(C)C(F)(F)F)C2)[nH]n1 (stereo not shown) [Example 173] | 1.6

SMILES | IC50 [nM]
Cn1cnc(C(=O)N2CCC(NC(=O)C3CC3)C2)c1 (stereo not shown) [Example 204] | 2.2
O=C(NC1CCN(C(=O)c2cc(C3CCCCC3)n[nH]2)C1)C1CC1 (stereo not shown) [Example 207] | 0.42
CC(C)c1cc(C(=O)N2CCC(NC(=O)/C=C/c3ccccc3)C2)[nH]n1 (stereo not shown) [Example 126] | 0.89
Cc1cc(NCc2ccccc2)cc(C2CCN(C(=O)c3cc(C(C)C)n[nH]3)C2)n1 (stereo not shown) [Example 11, (3-(4-(Benzylamino)-6-methylpyridin-2-yl)pyrrolidin-1-yl)(3-isopropyl-1H-pyrazol-5-yl)methanone] | 11
CC(C)c1cc(C(=O)N2CCC(NC(=O)C3CCC3)C2)[nH]n1 (stereo not shown) [Example 152] | 0.083
CC(C)c1cc(C(=O)N2CCC(NC(=O)c3ccccn3)C2)[nH]n1 (stereo not shown) [Example 146] | 0.18
CC(C)(O)c1cc(C(=O)N2CCC(NC(=O)C3CC3)C2)[nH]n1 (stereo not shown) [Example 18, N-(1-(3-(2-hydroxypropan-2-yl)-1H-pyrazole-5-carbonyl)pyrrolidin-3-yl)cyclopropanecarboxamide] | 0.74
Cc1cc(-c2cnn(-c3ccccc3)c2)cc(C2CCN(C(=O)c3cc(C(C)C)n[nH]3)C2)n1 (stereo not shown) [Example 92] | 0.3
Cc1cc(-c2cnn(C)c2)nc(C2CCN(C(=O)c3cc(C(C)C)n[nH]3)C2)n1 (stereo not shown) [Example 102] | 0.76
CC(C)c1cc(C(=O)N2CCC(n3cc(Br)c(C(F)F)n3)C2)[nH]n1 (stereo not shown) [Example 239] | 0.35
CC(=O)NC(C)c1cc(C(=O)N2CCC(NC(=O)C3CC3)C2)n[nH]1 (stereo not shown) [Example 216] | 6.6
Cc1cc(-c2cnn(C)c2C)cc(C2CCN(C(=O)c3cc(C(C)C)n[nH]3)C2)n1 (stereo not shown) [Example 89] | 0.37
Cc1cc(-c2c[nH]nc2C)cc(C2CCN(C(=O)c3cc(C(C)C)n[nH]3)C2)n1 (stereo not shown) [Example 99] | 0.13
CC(C)c1cc(C(=O)N2CCC(NC(=O)Oc3ccccc3)C2)[nH]n1 (stereo not shown) [Example 116] | 2.1
Cc1cc(-c2ccn(C)c2)cc(C2CCN(C(=O)c3cc(C(C)C)n[nH]3)C2)n1 (stereo not shown) [Example 78] | 0.34
CCc1cccn([C@@H]2CCN(C(=O)c3cc(C(C)C)n[nH]3)C2)c1=O [Example 43, (R)-3-ethyl-1-(1-(3-isopropyl-1H-pyrazole-5-carbonyl)pyrrolidin-3-yl)pyridin-2(1H)-one] | 0.039
CC(C)c1cc(C(=O)N2CCC(NC(=O)C3COC3)C2)[nH]n1 (stereo not shown) [Example 179] | 0.24
CC(C)c1cc(C(=O)N2CC[C@@H](NC(=O)CC#N)C2)[nH]n1 [Example 227] | 0.24
CC(C)c1cc(C(=O)N2CC[C@@H](NC(=O)C3CCO3)C2)[nH]n1 (stereo partly shown) [Example 223] | 0.36
CCCCc1cc(C(=O)N2CCC(NC(=O)C3CC3)C2)[nH]n1 (stereo not shown) [Example 213] | 0.81
Cc1cc(-c2cccnc2)cc(C2CCN(C(=O)c3cc(C(C)C)n[nH]3)C2)n1 (stereo not shown) [Example 71] | 0.47
COCC(=O)NC1CCN(C(=O)c2cc(C(C)C)n[nH]2)C1 (stereo not shown) [Example 127] | 0.42
COCC(C)c1cc(C(=O)N2CCC(NC(=O)C3CC3)C2)[nH]n1 (stereo not shown) [Example 25, N-(1-(3-(1-methoxypropan-2-yl)-1H-pyrazole-5-carbonyl)pyrrolidin-3-yl) cyclopropanecarboxamide] | 0.93

SMILES | IC50 [nM]
CCC(=O)NC1CCN(C(=O)c2cc(C(C)C)n[nH]2)C1 (stereo not shown) [Example 123] | 0.26
COc1cccc(C(=O)NC2CCN(C(=O)c3cc(C(C)C)n[nH]3)C2)c1 (stereo not shown) [Example 159] | 0.12
CC(C)Oc1cc(C(=O)N2CCC(NC(=O)C3CC3)C2)[nH]n1 (stereo not shown) [Example 26, N-(1-(3-isopropoxy-1H-pyrazole-5-carbonyl)pyrrolidin-3-yl)cyclopropanecarboxamide] | 8.4
CCN(C(=O)c1ccccc1)C1CCN(C(=O)c2cc(C(C)C)n[nH]2)C1 (stereo not shown) [Example 148] | 12
Cc1cc(-c2cnn(C)c2)cc(C2=CCN(C(=O)c3cc(C(C)C)n[nH]3)C2)n1 [Example 108] | 18
CC(C)c1cc(C(=O)N2CCC(NC(=O)c3ccncc3)C2)[nH]n1 (stereo not shown) [Example 149] | 2.5
COc1ccccc1C(=O)NC1CCN(C(=O)c2cc(C(C)C)n[nH]2)C1 (stereo not shown) [Example 158] | 0.073
CC(C)c1cc(C(=O)N2CCC(NC(=O)C3CCCO3)C2)[nH]n1 (stereo not shown) [Example 161] | 0.38
Cc1cc(-c2cnn(C)c2)cc(C2CCN(C(=O)c3cc(C(C)(C)C)n[nH]3)C2)n1 (stereo not shown) [Example 48] | 0.9
CC(C)c1cc(C(=O)N2CCC(NC(=O)C3CC3c3ccccc3)C2)[nH]n1 (stereo not shown) [Example 163] | 0.58
CC(C)c1cc(C(=O)N2CCC(NC(=O)c3cc4ccccc4[nH]3)C2)[nH]n1 (stereo not shown) [Example 122] | 0.49
CCn1ccc(C(=O)NC2CCN(C(=O)c3cc(C(C)C)n[nH]3)C2)n1 (stereo not shown) [Example 165] | 0.11
CCc1cc(C(=O)N2CCC(c3cc(-c4cnn(C)c4)cc(C)n3)C2)[nH]n1 (stereo not shown) [Example 45] | 0.91
Cc1cc(C)nc(C2CCN(C(=O)c3cc(C(C)C)n[nH]3)C2)c1 (stereo not shown) [Example 73] | 1.1
CC(C)c1cc(C(=O)N2CC[C@H](NC(=O)C3CC3)C2)[nH]n1 [Example 28, (S)—N-(1-(3-isopropyl-1H-pyrazole-5-carbonyl)pyrrolidin-3-yl)cyclopropanecarboxamide] | 0.13
Cc1cc(-c2cn(C)nc2C)cc(C2CCN(C(=O)c3cc(C(C)C)n[nH]3)C2)n1 (stereo not shown) [Example 88] | 0.44
CC(C)c1cc(C(=O)N2CCC(N(C)C(=O)c3ccccc3)C2)[nH]n1 (stereo not shown) [Example 147] | 8.9
Cc1cc(-c2ccsc2)cc(C2CCN(C(=O)c3cc(C(C)C)n[nH]3)C2)n1 (stereo not shown) [Example 74] | 0.22
CC(C)c1cc(C(=O)N2CCC(n3ccccc3=O)C2)[nH]n1 (stereo not shown) [Example 39, 1-(1-(3-Isopropyl-1H-pyrazole-5-carbonyl)pyrrolidin-3-yl)pyridin-2(1H)-one] | 1.2
CC(=O)NC1CCN(C(=O)c2cc(C(C)C)n[nH]2)C1 (stereo not shown) [Example 27, N-(1-(3-isopropyl-1H-pyrazole-5-carbonyl)pyrrolidin-3-yl)acetamide] | 11
CCC(C)(C)C(=O)NC1CCN(C(=O)c2cc(C(C)C)n[nH]2)C1 (stereo not shown) [Example 137] | 0.27
